Test results taken from ChEMBL document CHEMBL1135510, “Common and selective molecular determinants involved in metabotopic glutamate receptor agonist activity” (J Med Chem, 2002).

Key:
[1] = molecular target: T1, Metabotropic glutamate receptor 2 (Homo sapiens, UniProt Q14416); assay: Binding affinity at Metabotropic glutamate receptor 2; set-up: species or system Rattus norvegicus
Target sequence in this assay (Q14416 whole entry): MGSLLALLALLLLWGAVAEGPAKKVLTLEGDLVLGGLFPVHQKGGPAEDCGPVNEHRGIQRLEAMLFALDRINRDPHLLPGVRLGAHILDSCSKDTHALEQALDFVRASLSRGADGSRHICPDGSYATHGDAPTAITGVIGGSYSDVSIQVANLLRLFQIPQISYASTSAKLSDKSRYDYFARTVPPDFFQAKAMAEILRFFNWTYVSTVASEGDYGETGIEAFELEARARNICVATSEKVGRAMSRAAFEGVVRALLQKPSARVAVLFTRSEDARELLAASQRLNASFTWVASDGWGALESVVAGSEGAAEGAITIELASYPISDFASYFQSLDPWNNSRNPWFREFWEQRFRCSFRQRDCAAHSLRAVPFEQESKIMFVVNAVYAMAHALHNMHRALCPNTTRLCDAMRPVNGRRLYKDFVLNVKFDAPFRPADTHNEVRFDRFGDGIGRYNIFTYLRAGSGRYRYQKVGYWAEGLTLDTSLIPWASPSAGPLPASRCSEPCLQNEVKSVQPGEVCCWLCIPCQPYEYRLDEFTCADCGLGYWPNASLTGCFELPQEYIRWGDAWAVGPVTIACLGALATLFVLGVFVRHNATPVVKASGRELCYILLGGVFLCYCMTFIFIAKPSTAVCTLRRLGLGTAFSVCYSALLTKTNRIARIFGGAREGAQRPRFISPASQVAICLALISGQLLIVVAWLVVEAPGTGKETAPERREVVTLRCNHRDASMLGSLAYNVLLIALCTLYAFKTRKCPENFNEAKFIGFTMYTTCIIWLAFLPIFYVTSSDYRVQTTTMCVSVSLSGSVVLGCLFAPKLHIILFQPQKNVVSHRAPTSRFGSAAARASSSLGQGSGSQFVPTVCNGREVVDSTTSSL

[2] = molecular target: T1, Metabotropic glutamate receptor 2; assay: Potency at Metabotropic glutamate receptor 2, measured as the ratio of EC50 to IC50; No effect at 1 mM
Target sequence in this assay (Q14416 19-872 limits assumed): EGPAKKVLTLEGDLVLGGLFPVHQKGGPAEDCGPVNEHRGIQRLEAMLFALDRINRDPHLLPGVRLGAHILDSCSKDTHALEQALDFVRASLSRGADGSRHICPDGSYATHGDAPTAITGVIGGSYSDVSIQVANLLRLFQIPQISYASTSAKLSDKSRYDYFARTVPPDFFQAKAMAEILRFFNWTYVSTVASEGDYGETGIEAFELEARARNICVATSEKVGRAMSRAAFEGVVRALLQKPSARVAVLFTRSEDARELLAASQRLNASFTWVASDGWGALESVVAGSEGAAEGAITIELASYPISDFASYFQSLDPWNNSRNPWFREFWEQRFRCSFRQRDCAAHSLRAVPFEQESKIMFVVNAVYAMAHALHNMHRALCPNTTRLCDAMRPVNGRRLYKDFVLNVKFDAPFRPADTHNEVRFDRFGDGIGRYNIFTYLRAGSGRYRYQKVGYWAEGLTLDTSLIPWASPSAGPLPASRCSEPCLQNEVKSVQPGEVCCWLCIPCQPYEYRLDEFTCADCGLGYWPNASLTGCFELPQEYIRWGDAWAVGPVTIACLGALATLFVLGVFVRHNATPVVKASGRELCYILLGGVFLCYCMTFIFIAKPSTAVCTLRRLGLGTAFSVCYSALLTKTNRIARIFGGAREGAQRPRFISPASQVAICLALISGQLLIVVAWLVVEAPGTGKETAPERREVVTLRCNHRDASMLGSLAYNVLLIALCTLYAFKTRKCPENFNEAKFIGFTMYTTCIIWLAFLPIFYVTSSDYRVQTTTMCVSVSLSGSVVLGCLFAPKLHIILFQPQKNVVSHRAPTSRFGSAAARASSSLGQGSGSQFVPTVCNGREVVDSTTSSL

[3] = molecular target: Metabotropic glutamate receptor 1 (Homo sapiens) (UniProt Q13255); assay: Potency at Metabotropic glutamate receptor 1, measured as the ratio of EC50 to IC50; No effect at 1 mM
Sequence of Metabotropic glutamate receptor 1 (Homo sapiens) (Q13255 19-1194 limits assumed): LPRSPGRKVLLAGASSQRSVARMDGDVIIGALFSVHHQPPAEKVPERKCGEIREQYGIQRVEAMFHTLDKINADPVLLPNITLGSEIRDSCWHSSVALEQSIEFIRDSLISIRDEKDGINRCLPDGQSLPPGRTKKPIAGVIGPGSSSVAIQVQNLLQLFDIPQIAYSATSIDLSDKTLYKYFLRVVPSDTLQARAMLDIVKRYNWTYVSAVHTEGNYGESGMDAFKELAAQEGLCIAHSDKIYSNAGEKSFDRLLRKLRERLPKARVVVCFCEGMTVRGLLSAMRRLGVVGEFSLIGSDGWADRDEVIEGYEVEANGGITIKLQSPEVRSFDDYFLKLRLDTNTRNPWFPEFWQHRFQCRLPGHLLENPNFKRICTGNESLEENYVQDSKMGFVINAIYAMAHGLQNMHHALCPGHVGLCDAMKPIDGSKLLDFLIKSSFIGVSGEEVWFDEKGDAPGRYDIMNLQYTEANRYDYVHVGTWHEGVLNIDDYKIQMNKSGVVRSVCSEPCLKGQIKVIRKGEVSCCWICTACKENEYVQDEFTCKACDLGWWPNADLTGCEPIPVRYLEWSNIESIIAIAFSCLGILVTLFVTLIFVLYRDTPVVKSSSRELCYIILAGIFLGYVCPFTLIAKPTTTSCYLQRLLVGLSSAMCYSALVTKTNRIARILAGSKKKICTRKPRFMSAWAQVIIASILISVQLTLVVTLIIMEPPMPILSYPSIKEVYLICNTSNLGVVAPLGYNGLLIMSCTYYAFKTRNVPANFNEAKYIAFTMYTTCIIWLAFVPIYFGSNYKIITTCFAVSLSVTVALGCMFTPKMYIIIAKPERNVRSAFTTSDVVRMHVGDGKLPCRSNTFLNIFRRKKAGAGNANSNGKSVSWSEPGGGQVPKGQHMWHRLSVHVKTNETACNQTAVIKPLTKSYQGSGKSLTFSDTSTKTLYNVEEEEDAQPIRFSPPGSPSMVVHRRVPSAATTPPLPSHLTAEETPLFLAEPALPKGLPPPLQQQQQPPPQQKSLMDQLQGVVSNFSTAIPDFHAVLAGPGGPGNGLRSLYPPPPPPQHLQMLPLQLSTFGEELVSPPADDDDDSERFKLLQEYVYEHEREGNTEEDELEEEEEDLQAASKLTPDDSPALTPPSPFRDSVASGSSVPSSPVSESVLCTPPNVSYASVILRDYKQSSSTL

[4] = molecular target: T2, Metabotropic glutamate receptor 4 (Homo sapiens, UniProt Q14833); assay: Binding affinity at Metabotropic glutamate receptor 4; set-up: species or system Rattus norvegicus
T2 sequence (Q14833 whole entry): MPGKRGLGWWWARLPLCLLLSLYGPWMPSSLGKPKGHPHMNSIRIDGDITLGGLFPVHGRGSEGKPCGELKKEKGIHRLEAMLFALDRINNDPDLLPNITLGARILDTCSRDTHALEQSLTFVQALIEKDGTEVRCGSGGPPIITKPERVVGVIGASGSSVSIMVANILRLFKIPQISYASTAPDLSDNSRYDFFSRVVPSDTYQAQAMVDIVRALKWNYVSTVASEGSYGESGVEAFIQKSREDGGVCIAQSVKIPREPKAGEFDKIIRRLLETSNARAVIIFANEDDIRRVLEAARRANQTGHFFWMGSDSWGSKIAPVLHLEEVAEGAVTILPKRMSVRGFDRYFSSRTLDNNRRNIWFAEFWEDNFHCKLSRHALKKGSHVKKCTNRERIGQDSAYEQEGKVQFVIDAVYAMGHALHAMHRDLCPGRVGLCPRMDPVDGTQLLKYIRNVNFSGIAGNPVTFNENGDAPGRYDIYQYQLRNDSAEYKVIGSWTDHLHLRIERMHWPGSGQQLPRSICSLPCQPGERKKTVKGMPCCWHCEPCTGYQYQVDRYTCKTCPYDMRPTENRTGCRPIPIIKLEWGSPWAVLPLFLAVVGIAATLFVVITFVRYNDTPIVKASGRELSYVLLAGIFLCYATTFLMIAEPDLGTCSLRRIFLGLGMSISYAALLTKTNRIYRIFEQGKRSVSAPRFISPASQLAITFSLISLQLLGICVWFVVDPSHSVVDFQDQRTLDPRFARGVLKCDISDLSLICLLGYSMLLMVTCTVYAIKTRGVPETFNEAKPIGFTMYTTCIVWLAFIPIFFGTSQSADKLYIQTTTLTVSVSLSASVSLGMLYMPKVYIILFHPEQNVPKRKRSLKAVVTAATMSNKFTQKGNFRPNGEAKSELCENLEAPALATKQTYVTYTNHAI

[5] = molecular target: Metabotropic glutamate receptor 1 (Rattus norvegicus, UniProt P23385); assay: Inhibition of binding to rat mGluR1a (metabotropic glutamate receptor) expressed in HEK-293 cells; format: cell-based, HEK293
Sequence of Metabotropic glutamate receptor 1 (P23385 whole entry): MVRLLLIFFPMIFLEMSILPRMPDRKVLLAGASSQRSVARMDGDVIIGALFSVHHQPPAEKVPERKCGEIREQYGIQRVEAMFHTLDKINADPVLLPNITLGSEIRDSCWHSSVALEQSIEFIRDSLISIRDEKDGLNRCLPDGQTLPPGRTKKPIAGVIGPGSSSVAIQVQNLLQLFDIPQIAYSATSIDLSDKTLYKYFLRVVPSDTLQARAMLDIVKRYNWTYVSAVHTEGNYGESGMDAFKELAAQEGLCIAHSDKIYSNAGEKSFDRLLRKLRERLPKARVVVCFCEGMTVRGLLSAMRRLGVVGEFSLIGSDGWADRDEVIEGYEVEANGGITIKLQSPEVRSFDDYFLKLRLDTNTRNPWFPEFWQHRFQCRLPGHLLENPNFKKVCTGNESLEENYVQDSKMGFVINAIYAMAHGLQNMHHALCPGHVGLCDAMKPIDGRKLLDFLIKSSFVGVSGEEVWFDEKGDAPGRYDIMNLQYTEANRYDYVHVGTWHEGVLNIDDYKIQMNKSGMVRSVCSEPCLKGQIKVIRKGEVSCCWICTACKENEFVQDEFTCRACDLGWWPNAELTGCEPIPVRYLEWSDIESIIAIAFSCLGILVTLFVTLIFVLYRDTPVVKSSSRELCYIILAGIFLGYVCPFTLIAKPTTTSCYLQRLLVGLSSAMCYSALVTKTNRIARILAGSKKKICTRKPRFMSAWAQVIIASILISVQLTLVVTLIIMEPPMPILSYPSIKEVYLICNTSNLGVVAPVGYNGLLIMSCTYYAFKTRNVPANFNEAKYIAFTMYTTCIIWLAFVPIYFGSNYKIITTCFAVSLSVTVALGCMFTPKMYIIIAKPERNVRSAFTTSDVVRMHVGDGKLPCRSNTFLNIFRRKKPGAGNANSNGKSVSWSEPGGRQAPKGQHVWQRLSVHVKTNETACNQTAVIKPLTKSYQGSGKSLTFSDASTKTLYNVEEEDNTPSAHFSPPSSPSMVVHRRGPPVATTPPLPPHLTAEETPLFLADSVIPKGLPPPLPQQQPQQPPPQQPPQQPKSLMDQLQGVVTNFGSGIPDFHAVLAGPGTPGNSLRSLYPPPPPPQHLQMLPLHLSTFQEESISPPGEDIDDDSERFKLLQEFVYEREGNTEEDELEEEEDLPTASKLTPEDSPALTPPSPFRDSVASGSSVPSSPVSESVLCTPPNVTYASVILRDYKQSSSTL

[6] = molecular target: T1, Metabotropic glutamate receptor 2; assay: Potency at metabotropic glutamate receptor 2, measured as the ratio of EC50 to IC50; No effect at 1 mM
Target sequence in this assay (Q14416 19-872 limits assumed): as the sequence (Q14416 19-872 limits assumed) above

[7] = molecular target: T2, Metabotropic glutamate receptor 4; assay: Potency at metabotropic glutamate receptor 4, measured as the ratio of EC50 to IC50; No effect at 1 mM
[8] = molecular target: Metabotropic glutamate receptor 1 (Homo sapiens) (UniProt Q13255); assay: Potency at metabotropic glutamate receptor 1, measured as the ratio of EC50 to IC50; No effect at 1 mM

Compound `N[C@@]1(C(=O)O)CC[C@H]2[C@H](C(=O)O)[C@H]21` has a Ki [1] of 0.013 µM.
In the case of `N[C@@]1(C(=O)O)C[C@H](C(=O)O)[C@H](C(=O)O)C1`, the NE [2] is reported as “No effect at 1 mM” and the NE [3] is reported as “No effect at 1 mM”.
With `N[C@H](C(=O)O)c1ccc(C(=O)O)cc1` the Ki [4] was 838 µM and the Ki [5] was 3.7 µM.
Compound `N[C@H](C(=O)O)C1[C@@H](C(=O)O)[C@@H]1C(=O)O` (some centres undefined) has a Ki [1] of 0.11 µM and a Ki [5] of 77 µM.
For `N[C@@H](Cn1oc(=O)[nH]c1=O)C(=O)O` [QUISQUALATE], the Ki [4] was 112 µM and the Ki [1] was 113 µM.
For `N[C@H](C(=O)O)c1cc(O)cc(O)c1`, the Ki [1] was > 1000 µM, the Ki [5] was 0.9 µM and the NE [6] was “No effect at 1 mM”. For the same compound, the NE [7] was “No effect at 1 mM”.
For `N[C@@H](CCP(=O)(O)O)C(=O)O`, the Ki [4] was 0.47 µM, the Ki [1] was 129 µM and the Ki [5] was > 1000 µM. For the same compound, the NE [8] was “No effect at 1 mM”.
For `N[C@H](C(=O)O)c1ccc(P(=O)(O)O)cc1`, the NE [2] was “No effect at 1 mM” and the NE [3] was “No effect at 1 mM”.
